US20260042764A1, “COMPOSITIONS AND METHODS FOR INHIBITION OF KRAS” (TheRas, Inc., priority 2022, published 2026)

Tests used:
[1] = molecular target: T1, Avi-KRAS G12D (1-169) GppNHp/RAF1 RBD-3xFLAG (52-151) (Homo sapiens, UniProt P01116, G12D); assay: Raf1-KRAS G12D-GppNHP disruption HTRF assay (Biological Example 1); format: binding
T1 construct: Avi-KRAS G12D (1-169)
How it was run: (§1)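 HTRF PPI disruption; buffer 50 mM Tris pH 7.5, 100 mM NaCl, 5 mM MgCl2, 0.1% BSA, 0.01% Tween, 10% DMSO. Protein mix 1 h RT shaking, reagent mix 1 h RT shaking. Data as % activity vs DMSO (100%).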

[2] = molecular target: T2, Avi-KRAS G12R (1-169) GppNHp/RAF1 RBD-3xFLAG (52-151) (Homo sapiens, UniProt P01116, G12R); assay: Raf1-KRAS G12R-GppNHP disruption HTRF assay (Biological Example 1); format: binding
T2 construct: Avi-KRAS G12R (1-169)
T2 sequence (P01116 1-169 isoform P01116-2 G12R): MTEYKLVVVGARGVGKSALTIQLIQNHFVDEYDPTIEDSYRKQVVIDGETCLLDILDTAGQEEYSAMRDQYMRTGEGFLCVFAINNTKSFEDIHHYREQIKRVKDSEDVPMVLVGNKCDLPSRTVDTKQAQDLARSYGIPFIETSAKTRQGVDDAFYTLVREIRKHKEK
How it was run: as §1

[3] = molecular target: T3, Avi-KRAS G12V (1-169) GppNHp/RAF1 RBD-3xFLAG (52-151) (Homo sapiens, UniProt P01116, G12V); assay: Raf1-KRAS G12V-GppNHP disruption HTRF assay (Biological Example 1); format: binding
T3 construct: Avi-KRAS G12V (1-169)
T3 sequence (P01116 1-169 isoform P01116-2 G12V): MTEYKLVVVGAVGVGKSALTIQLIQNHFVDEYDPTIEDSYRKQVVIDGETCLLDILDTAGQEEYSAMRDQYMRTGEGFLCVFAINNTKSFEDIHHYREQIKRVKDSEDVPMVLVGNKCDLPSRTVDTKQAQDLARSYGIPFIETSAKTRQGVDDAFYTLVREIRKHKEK
How it was run: as §1

[4] = molecular target: T4, Avi-KRAS WT (1-169) GppNHp/RAF1 RBD-3xFLAG (52-151) (Homo sapiens, UniProt P01116); assay: Raf1-KRAS WT-GppNHP disruption HTRF assay (Biological Example 1); format: binding
T4 construct: Avi-KRAS WT (1-169)
T4 sequence (P01116 1-169 isoform P01116-2): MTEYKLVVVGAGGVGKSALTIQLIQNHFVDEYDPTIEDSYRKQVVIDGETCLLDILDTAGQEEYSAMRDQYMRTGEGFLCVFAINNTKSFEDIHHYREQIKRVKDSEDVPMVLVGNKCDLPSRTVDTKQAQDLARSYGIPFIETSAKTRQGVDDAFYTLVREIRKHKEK
How it was run: as §1

GP2d cells (KRAS G12D) = assay: Cell-based pERK HTRF assay in GP2d cell (Biological Example 2); details: GP2d, GP2d (KRAS G12D) cells, pERK HTRF
How it was run: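 HTRF read-out of pERK (excitation 320 nm, emission 615 nm) after lysates sat 4–24 h at room temperature with Eu cryptate and d2 antibodies.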

SW620 cells (KRAS G12V) = assay: Cell-based pERK HTRF assay in SW620 cell (Biological Example 4); details: Homo sapiens, SW-620, SW620 (KRAS G12V) cells, pERK HTRF
How it was run: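 In SW620 cells grown in RPMI with 10% FBS, a 4 h compound treatment (0.25% DMSO, 9-point curve from 1 μM) preceded lysis. Phospho-ERK levels were then read by time-resolved FRET at 615 nm emission.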

[5] = KRAS G12D, GppNHp-loaded, Table 11
[6] = KRAS G12R, GppNHp-loaded, Table 11
[7] = KRAS G12V, GppNHp-loaded, Table 11
[8] = KRAS WT, GppNHp-loaded, Table 11
[9] = KRAS G12D, GppNHp-loaded, class symbols
[10] = KRAS G12R, GppNHp-loaded, class symbols
[11] = KRAS G12V, GppNHp-loaded, class symbols
[12] = KRAS WT, GppNHp-loaded, class symbols

T1 sequence (P01116 1-169 isoform P01116-2 G12D): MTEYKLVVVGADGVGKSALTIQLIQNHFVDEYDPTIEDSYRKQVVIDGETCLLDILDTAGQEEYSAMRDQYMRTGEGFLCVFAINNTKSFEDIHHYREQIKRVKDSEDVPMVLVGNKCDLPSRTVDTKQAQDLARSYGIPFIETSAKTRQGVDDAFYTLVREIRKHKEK

SMILES | IC50 ([1]; KRAS G12D-GppNHp/RAF1 RBD HTRF) [nM] | IC50 ([2]; KRAS G12R-GppNHp/RAF1 RBD HTRF) [nM] | IC50 ([3]; KRAS G12V-GppNHp/RAF1 RBD HTRF) [nM] | IC50 ([4]; KRAS WT-GppNHp/RAF1 RBD HTRF) [nM] | IC50 (GP2d cells (KRAS G12D)) [nM] | IC50 (SW620 cells (KRAS G12V)) [nM] | IC50 [1, 5] [nM] | IC50 [2, 6] [nM] | IC50 [3, 7] [nM] | IC50 [4, 8] [nM] | IC50 [1, 9] [nM] | IC50 [2, 10] [nM] | IC50 [3, 11] [nM] | IC50 [4, 12] [nM] | IC50 (GP2d cells (KRAS G12D); class symbols) [nM] | IC50 (SW620 cells (KRAS G12V); class symbols) [nM]
CCN(c1nc(OC[C@@]23CCCN2C[C@H](F)C3)nc2c(F)c(-c3ccc(F)c4sc(N)c(C#N)c34)c(Cl)cc12)[C@@H]1CCN(C(C)=O)[C@H]1C [Compound 416] | 100 to 1000 | 1000 to 10000 | 1000 to 10000 | 100 to 1000 | < 100 | 100 to 1000 |  |  |  |  |  |  |  |  |  | 
CC[C@@H]1[C@H](N(C)c2nc(OC[C@@]34CCCN3C[C@H](F)C4)nc3c(F)c(-c4ccc(F)c5sc(N)c(C#N)c45)c(C(F)(F)F)cc23)CCN1C(=O)C(C)C [Compound 433] | 1000 to 10000 | 1000 to 10000 | 1000 to 10000 | 1000 to 10000 | 100 to 1000 | 100 to 1000 |  |  |  |  |  |  |  |  |  | 
CN(C)C(=O)c1cc2n(n1)CCCN(c1nc(OC[C@@]34CCCN3C[C@H](F)C4)nc3c(F)c(-c4ccc(F)c5sc(N)c(C#N)c45)c(C(F)(F)F)cc13)C2 [Compound 256] |  |  |  |  | < 100 | < 100 | < 100 | 100 to 1000 | 100 to 1000 | 100 to 1000 |  |  |  |  |  | 
CC(=O)N(C)[C@H]1CCN(c2nc(OC[C@@]34CCCN3C[C@H](F)C4)nc3c(F)c(-c4ccc(F)c5sc(N)c(C#N)c45)c(C(F)(F)F)cc23)C1 [Compound 206] |  |  |  |  | 100 to 1000 | 100 to 1000 | 1000 to 10000 | 1000 to 10000 | 1000 to 10000 | 1000 to 10000 |  |  |  |  |  | 
N#Cc1c(N)sc2c(F)ccc(-c3c(C(F)(F)F)cc4c(N5CCOCC(O)C5)nc(OC[C@@]56CCCN5C[C@H](F)C6)nc4c3F)c12 (stereo partly drawn) [Compound 266] |  |  |  |  | < 100 | < 100 | < 100 | < 100 | 100 to 1000 | < 100 |  |  |  |  |  | 
Cc1c(C(=O)N2CCC2)nn2c1CN(c1nc(OCC34CCCN3CC(F)C4)nc3c(F)c(-c4ccc(F)c5sc(N)c(C#N)c45)c(C(F)(F)F)cc13)CC2 (stereo not drawn) [Compound 742] |  |  |  |  |  |  |  |  |  |  | 100 to 1000 | 100 to 1000 | 100 to 1000 | 1000 to 10000 | < 100 | < 100
CCN(c1nc(OC[C@@]23CCCN2C[C@H](F)C3)nc2c(F)c(-c3ccc(F)c4sc(N)c(C#N)c34)c(C(F)(F)F)cc12)[C@@H]1C[C@H](C)N(C(=O)C2COC2)C1 (atropisomer, axis not shown) [Compound 630] |  |  |  |  |  |  |  |  |  |  | 100 to 1000 | 100 to 1000 | 100 to 1000 | 100 to 1000 | < 100 | < 100
CCN1CC[C@@H](N(CC)c2nc(OC[C@@]34CCCN3C[C@H](F)C4)nc3c(F)c(-c4ccc(F)c5sc(N)c(C#N)c45)c(C(F)(F)F)cc23)C1=O (atropisomer, axis not shown) [Compound 695] |  |  |  |  |  |  |  |  |  |  | 100 to 1000 | 100 to 1000 | 100 to 1000 | 100 to 1000 | < 100 | < 100
N#Cc1c(N)sc2c(F)ccc(-c3c(C(F)(F)F)cc4c(N5CCO[C@H]6C[C@H]65)nc(OC[C@@]56CCCN5C[C@H](F)C6)nc4c3F)c12 [Compound 403] | 100 to 1000 | 100 to 1000 | 100 to 1000 | 100 to 1000 | < 100 | < 100 |  |  |  |  |  |  |  |  |  | 
CCN(c1nc(OC[C@@]23CCCN2C[C@H](F)C3)nc2c(F)c(-c3ccc(F)c4sc(N)c(C#N)c34)c(C(F)(F)F)cc12)[C@H]1CCN(C(=O)c2cnn(C)c2)C1 (atropisomer, axis not shown) [Compound 748] |  |  |  |  |  |  |  |  |  |  | < 100 | < 100 | < 100 | < 100 | < 100 | < 100
CCN(c1nc(OC[C@@]23CCCN2C[C@H](F)C3)nc2c(F)c(-c3ccc(F)c4sc(N)c(C#N)c34)c(C(F)(F)F)cc12)[C@H]1CCN(C(=O)C=C(C)C)C1 (atropisomer, axis not shown) [Compound 675] |  |  |  |  |  |  |  |  |  |  | < 100 | < 100 | < 100 | < 100 | < 100 | < 100
